TGI and GI50 data for 13 compounds are collected here from PubChem BioAssay (NCI).

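Five compound concentrations were applied to cells in 96-well plates for 48 hours; endpoints were derived by simple linear interpolation of the resulting dose-response curve. At the GI50, growth is halved. TGI marks complete inhibition of growth.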

Some test systems named below: A498 renal; ACHN renal; DU-145 prostate; HOP-62 NSCLC; MCF7 breast; NCI-H522 lung; PC-3 prostate; SF-268 CNS; SW-620 colon; UACC-62 melanoma.
Holding throughout (experiment): growth of human tumour cells (NCI), 48 h

`CCN1CCCCC(=N\O)/C(=N/O)CCCC1`: the TGI in the assay with A498 renal, in the assay with ACHN renal, with DU-145 prostate, in the assay with HOP-62 NSCLC, in the assay with MCF7 breast and in the assay with NCI-H522 lung was over 100 µM throughout. Further, the TGI with PC-3 prostate, in the assay with SF-268 CNS, in the assay with SW-620 colon and in the assay with UACC-62 melanoma was over 100 µM in each case.

With `C=C1C(=O)O[C@H]2[C@H]1CC/C(COC(=O)C(=O)c1cn(C)c3ccc(OC)cc13)=C\CC[C@@]1(C)O[C@@H]21`, the GI50 was 6.77 µM with A498 renal; 3.18 µM in the assay with ACHN renal; 6.67 µM in the assay on DU-145 prostate; 6.46 µM in the assay on HOP-62 NSCLC; 2.8 µM with MCF7 breast; 5.02 µM in the assay with NCI-H522 lung. The GI50 with PC-3 prostate is 5.89 µM; with SF-268 CNS, 5.71 µM; in the assay with SW-620 colon, 3.53 µM; in the assay on UACC-62 melanoma, 2.8 µM. Further, the TGI in the assay on A498 renal worked out at 10.1 µM; in the assay with ACHN renal it was 7.79 µM; in the assay with DU-145 prostate it was 15.5 µM; in the assay on HOP-62 NSCLC, 11.9 µM; in the assay on MCF7 breast, 16.4 µM; with NCI-H522 lung, 9.16 µM. Besides, the TGI was found to be 10.8 µM in the assay with PC-3 prostate, 12.5 µM in the assay on SF-268 CNS, 14.5 µM in the assay on SW-620 colon and 7.08 µM in the assay with UACC-62 melanoma.

Take `COc1ccc(-c2[nH]ncc2-c2cc(OC)c(OC)c(OC)c2)cc1`: the GI50 in the assay with A498 renal, in the assay on ACHN renal, in the assay with DU-145 prostate, with HOP-62 NSCLC, in the assay with MCF7 breast and with NCI-H522 lung was under 0.01 µM each time. Moreover, the GI50 is under 0.01 µM in the assay on PC-3 prostate, under 0.0127 µM in the assay on SF-268 CNS, under 0.01 µM with SW-620 colon and under 0.01 µM with UACC-62 melanoma. The TGI in the assay on A498 renal is under 0.0127 µM; with ACHN renal it was over 42.9 µM; in the assay with DU-145 prostate it was 1.64 µM; in the assay on HOP-62 NSCLC it was over 100 µM; in the assay with MCF7 breast it was 22.5 µM; in the assay on NCI-H522 lung, under 0.01 µM. The TGI in the assay on PC-3 prostate is 32.5 µM; with SF-268 CNS, over 38.1 µM; with SW-620 colon, over 41.5 µM; in the assay on UACC-62 melanoma, 22.5 µM.

Consider `CCOC(=O)c1cnc2c(cnn2CC)c1NN=C(C)C`, for which the GI50 is 28.1 µM in the assay on A498 renal; 24 µM with ACHN renal; 29.5 µM with DU-145 prostate; 65.9 µM in the assay on HOP-62 NSCLC; 90.4 µM in the assay on MCF7 breast; 73.2 µM in the assay on NCI-H522 lung. Moreover, the GI50 in the assay with PC-3 prostate was 37.5 µM; with SF-268 CNS, 38.9 µM; in the assay on SW-620 colon, 83.8 µM; with UACC-62 melanoma, 45.3 µM. The TGI with A498 renal, with ACHN renal, with DU-145 prostate, with HOP-62 NSCLC, with MCF7 breast and in the assay on NCI-H522 lung was over 100 µM in each case. The TGI in the assay on PC-3 prostate, in the assay on SF-268 CNS, in the assay with SW-620 colon and with UACC-62 melanoma was over 100 µM each time.

As to `C#CC#CC#CC#CC#CC#CC#CC#CCC1OC[C@H](COC(=O)O[C@@H](C(=O)O[C@H]2C[C@@]3(O)[C@@H](OC(=O)c4ccccc4)[C@@H]4[C@]5(OC(C)=O)CO[C@@H]5C[C@H](O)[C@@]4(C)C(=O)[C@H](OC(C)=O)C(=C2C)C3(C)C)[C@@H](NC(=O)c2ccccc2)c2ccccc2)O1` (some centres undefined), the GI50 in the assay on A498 renal was 0.494 µM; in the assay with ACHN renal, over 33.3 µM; with DU-145 prostate, 0.228 µM; in the assay on HOP-62 NSCLC, 1.37 µM; with MCF7 breast, 0.0921 µM; with NCI-H522 lung, 0.648 µM. Also, the GI50 in the assay on PC-3 prostate was 0.569 µM; in the assay with SF-268 CNS it was 0.992 µM; in the assay with SW-620 colon, 0.261 µM; with UACC-62 melanoma, 0.907 µM. Also, the TGI in the assay with A498 renal was over 8.14 µM; with ACHN renal, over 33.3 µM; in the assay on DU-145 prostate, over 33.3 µM; in the assay on HOP-62 NSCLC it was over 33.3 µM; with MCF7 breast, over 33.3 µM; in the assay on NCI-H522 lung, over 33.3 µM. The TGI with PC-3 prostate, with SF-268 CNS, in the assay with SW-620 colon and with UACC-62 melanoma was over 33.3 µM each time.

Take `COc1ccc(Nc2c[nH]c(=O)[nH]c2=O)cc1`: the TGI in the assay with A498 renal, in the assay with ACHN renal, in the assay with DU-145 prostate, in the assay on HOP-62 NSCLC, in the assay on MCF7 breast and with NCI-H522 lung was over 100 µM each time. For the same compound, the TGI in the assay on PC-3 prostate, in the assay with SW-620 colon and in the assay with UACC-62 melanoma was over 100 µM in each case.

Consider `O=C(Nc1ccccc1F)c1ccc(NC2=C(Cl)C(=O)N(Cc3ccccc3)C2=O)cc1`, for which the GI50 in the assay with A498 renal is 16.6 µM; in the assay on ACHN renal, 15.1 µM; in the assay with DU-145 prostate, 2.11 µM; in the assay with MCF7 breast, 2.02 µM; in the assay on NCI-H522 lung, 2.21 µM; in the assay with PC-3 prostate, 3.39 µM. In addition, the GI50 is 2 µM in the assay with SF-268 CNS, 3.29 µM in the assay on SW-620 colon and 4.39 µM with UACC-62 melanoma. Besides, the TGI with A498 renal was 30.2 µM; in the assay on ACHN renal it was 28.4 µM; with DU-145 prostate, 4.34 µM; in the assay with MCF7 breast it was 5.06 µM; in the assay on NCI-H522 lung, 5.34 µM; in the assay with PC-3 prostate, 12.8 µM. Besides, the results for the TGI with SF-268 CNS, in the assay on SW-620 colon and in the assay on UACC-62 melanoma were 5.2 µM, 9.93 µM and 15.9 µM, respectively.

Consider `N#Cc1ccc2oc3ccc(C#N)cc3c(=O)c2c1`, for which the TGI was 28.9 µM with A498 renal; over 100 µM in the assay on ACHN renal; over 100 µM with DU-145 prostate; 94.8 µM in the assay with MCF7 breast; over 100 µM in the assay on NCI-H522 lung; 55 µM in the assay with PC-3 prostate. Further, the TGI in the assay with SF-268 CNS is 69.1 µM; in the assay on SW-620 colon, over 100 µM; in the assay with UACC-62 melanoma, 41.6 µM.

With `CS(=O)(=O)CS(=O)CS(=O)CS(=O)CC(NC(=O)CCC(N)C(=O)O)C(=O)O` (centres undefined), the TGI in the assay with ACHN renal, in the assay with DU-145 prostate, in the assay with HOP-62 NSCLC, in the assay with MCF7 breast, in the assay on NCI-H522 lung and with PC-3 prostate was over 100 µM in each case. Also, the TGI in the assay with SF-268 CNS, with SW-620 colon and in the assay with UACC-62 melanoma was over 100 µM in each case.

Consider `CCCCC#Cc1cccc(=O)o1`, for which the GI50 in the assay with A498 renal was 9.83 µM; in the assay on DU-145 prostate, 29.5 µM; in the assay on HOP-62 NSCLC, over 100 µM; with MCF7 breast, 8.9 µM; with NCI-H522 lung, 7.16 µM; with PC-3 prostate, 25.7 µM. The figures for the GI50 with SF-268 CNS, in the assay on SW-620 colon and with UACC-62 melanoma were over 100 µM, 22.5 µM and 30 µM, respectively. Moreover, the TGI in the assay on A498 renal was 66.1 µM; in the assay on DU-145 prostate it was over 100 µM; in the assay with HOP-62 NSCLC, over 100 µM; with MCF7 breast it was over 100 µM; in the assay on NCI-H522 lung, over 100 µM; in the assay on PC-3 prostate, over 100 µM. In addition, the TGI in the assay on SF-268 CNS, with SW-620 colon and in the assay with UACC-62 melanoma was over 100 µM in each case.

As for `COc1ccc(-c2c(C#N)c(N)nc3c2CCCc2ccc(F)cc2-3)cc1OC`, the TGI in the assay with ACHN renal is 19.4 µM; in the assay on DU-145 prostate, 15.7 µM; with HOP-62 NSCLC, 29.7 µM; with MCF7 breast, over 100 µM; in the assay on NCI-H522 lung, 33.5 µM; in the assay with SF-268 CNS, over 100 µM. In addition, in the assay on SW-620 colon, the TGI was over 38.8 µM. Also, the GI50 in the assay on DU-145 prostate is 0.0164 µM; in the assay with HOP-62 NSCLC it was 0.131 µM; with MCF7 breast, under 0.01 µM; with NCI-H522 lung, under 0.01 µM; with PC-3 prostate, under 0.0185 µM; in the assay on SF-268 CNS, 0.0335 µM. For the same compound, in the assay with UACC-62 melanoma, the GI50 was under 0.0169 µM.

Take `CC(C)CC(=O)CC(O)C(Cl)(Cl)Cl` (centres undefined): the TGI in the assay on A498 renal, in the assay with ACHN renal, with DU-145 prostate, in the assay on HOP-62 NSCLC, in the assay with MCF7 breast and in the assay on NCI-H522 lung was over 100 µM throughout. The TGI with PC-3 prostate, in the assay on SW-620 colon and in the assay with UACC-62 melanoma was over 100 µM throughout.

On to `COC(=O)[C@H](Cc1ccccc1)NC(=O)[C@@H](OC)[C@@H]1Cc2cc3cc(OC4CC(OC5CC(O)C(O)C(C)O5)C(O)C(C)O4)c(C)c(O)c3c(O)c2C(=O)[C@H]1OC1CC(OC2CC(OC3CC(C)(O)C(O)C(C)O3)C(O)C(C)O2)C(O)C(C)O1` (some centres undefined), for which the GI50 is 0.024 µM in the assay on A498 renal; 0.0286 µM in the assay with DU-145 prostate; 0.0147 µM in the assay on HOP-62 NSCLC; 0.00534 µM in the assay with MCF7 breast; 0.0064 µM in the assay with NCI-H522 lung; 0.0215 µM with PC-3 prostate. The GI50 in the assay with SF-268 CNS is 0.0298 µM; in the assay on SW-620 colon, 0.0196 µM; in the assay on UACC-62 melanoma it was 0.00473 µM. Further, the TGI in the assay on A498 renal was 0.0626 µM; with DU-145 prostate it was over 14.3 µM; with HOP-62 NSCLC, 11.4 µM; in the assay on MCF7 breast, 0.241 µM; with NCI-H522 lung, 1.72 µM; in the assay on PC-3 prostate it was 0.429 µM. For the same compound, the TGI in the assay with SF-268 CNS is 2.24 µM; with SW-620 colon, over 14.3 µM; in the assay on UACC-62 melanoma it was 0.0209 µM.
